Values joined by “and” are separate entries in the source; they are usually repeats but may differ in a detail not shown here. Equal entries are not always repeated.
Assays:
[1] = test system: CNV-positive adolescents with moderately severe ADHD; conditions: in vivo
animal models = conditions: cited from earlier work
[2] = test system: CNV-positive adolescents with moderately severe ADHD; assay: SAGA Phase 2 study: treatment response (responder: >=30% ADHD-RS-5 reduction, CGI-I 1 or 2, composite); type: in vivo, human; conditions: for Responder? (Y/N): Table 19
Description: (§1) The maximum dose was 400 mg BID or placebo.
Treatment response was evaluated by measurement of responders and remission. The definition of a “responder” in this study was a response at endpoint of:
A) ≥30% reduction from Baseline in ADHD-RS-5 Total score; • B) CGI-I score of 1 (very much improved) or 2 (much improved); OR • C) Composite (both A and B)
Throughout, the “Response” columns represent the % reduction in ADHD-RS score at endpoint from baseline. […]

[3] = test system: CNV-positive adolescents with moderately severe ADHD; assay: SAGA Phase 2 study: tolerability/safety, treatment-emergent adverse events (safety population); conditions: safety population; NFC-1 n = 47
[4] = test system: dementia-related cognitive impairment; conditions: cited from earlier work
[5] = test system: CNV-positive adolescents with moderately severe ADHD; assay: SAGA Phase 2 study: ADHD-RS-5 total score change from baseline (LOCF); type: in vivo, human; parameters: Response (% reduction in ADHD-RS score at endpoint from baseline): concentration or dose not given beside the values; conditions: for Response (change from baseline in ADHD RS-5 total score): Table 19
Text: Subjects received randomized treatment with either NFC-1 or placebo. Subjects had ADHD as defined by the Diagnostic and Statistical Manual of Mental Disorders, 5th edition (DSM-5) and Version 5 of the Attention Deficit Hyperactivity Disorder Rating Scale (ADHD RS-5) >28 at Baseline with or without conventional ADHD therapy.
The study was a multicenter, Phase 2, double-blind, randomized, placebo-controlled, parallel-group, dose-optimization study. The study enrolled adolescents 12-17 yrs (inclusive) with ADHD defined by DSM-5 criteria.
Subjects were CNV positive for a CNVs in at least one of the 273 Tier 1 or Tier 2 glutamatergic network genes of interest as listed in Table 1 or 2. These subjects positive for a CNV may also be termed “biomarker positive.”
as §1
Efficacy was assessed by the ADHD RS-5, CGI-I, CGI-S, the Adolescent Sleep Hygiene Scale (ASHS), and the Screen for Childhood Anxiety-related Emotional Disorders (SCARED).
The primary efficacy endpoint was the change from baseline in ADHD-RS-5 total score to end of study (last observation carried forward, LOCF) in Intent-to-Treat (ITT) population. The ITT population consisted of 101 patients randomized to NFC-1 or placebo.

[6] = test system: CNV-positive adolescents with moderately severe ADHD; assay: SAGA Phase 2 study: remission (ADHD-RS-5 <=18, CGI-I 1, composite); type: in vivo, human; conditions: endpoint; data not shown
Description: as §1
The definition of a “remission” in this study was a response at endpoint of:
A) ADHD-RS-5 Total score ≤18; • B) CGI-I score of 1. OR • C) Composite (both A and B)

pediatric ADHD subjects = pediatric ADHD subjects (Akhundian 2001); cited from earlier work
[7] = test system: group I and group II/III mGluRs; conditions: in vitro studies (Hirouchi 2000); cited from earlier work
[8] = prior human studies; cited from earlier work
[9] = NFC-1-treated patient with CNV in ADRA2A
[10] = NFC-1-treated patient with CNV in CA8
[11] = NFC-1-treated patient with CNV in GRM5
[12] = NFC-1-treated patient with CNV in SNCA
[13] = study end (LOCF), 8-Gene Subset including CNTN4, NFC-1 BID n = 17, p <0.0001 vs placebo
[14] = study end (LOCF), CNTN4 Subset, NFC-1 BID n = 6, p <0.01 vs placebo
[15] = treatment response at endpoint (ITT, LOCF), NFC-1 BID n = 46, p <0.05 vs placebo

O=C1CC[C@H](C(=O)N2CCCCC2)N1 [NFC-1, fasoracetam monohydrate]
subjects in whom dosing with the highest dose (400 mg BID) was achieved ([1]; human, 4 weeks): 91%
Any TEAE, % of subjects ([1]; human, 6 weeks): 70%
Discontinuations due to TEAEs, % of subjects ([1]; human, 6 weeks): 6%
TEAE: Accidental overdose, % of subjects ([1]; human, 6 weeks): 11%
TEAE: Appetite increased, % of subjects ([1]; human, 6 weeks): 6%
TEAE: Fatigue, % of subjects ([1]; human, 6 weeks): 15%
TEAE: Headache, % of subjects ([1]; human, 6 weeks): 9%
TEAE: Irritability, % of subjects ([1]; human, 6 weeks): 2%
TEAE: Nasopharyngitis, % of subjects ([1]; human, 6 weeks): 2%
TEAE: Nausea, % of subjects ([1]; human, 6 weeks): 6%
TEAE: Weight increased, % of subjects ([1]; human, 6 weeks): 15%
overall tolerability [1]: generally well-tolerated
serious TEAEs [1]: No serious TEAEs were reported
severity of TEAEs [1]: majority of TEAEs were mild-to-moderate
effects on learning and memory (animal models): Positive effects
Responder? (Y/N) [2, 9]: Y (“Responder” indicates a 30% or greater reduction from baseline in ADHD RS-5 total score)
Responder? (Y/N) [2, 10]: Y (“Responder” indicates a 30% or greater reduction from baseline in ADHD RS-5 total score)
Responder? (Y/N) [2, 11]: Y (“Responder” indicates a 30% or greater reduction from baseline in ADHD RS-5 total score)
Responder? (Y/N) [2, 12]: Y (“Responder” indicates a 30% or greater reduction from baseline in ADHD RS-5 total score)
Responder? (Y/N) ([2]; NFC-1-treated patients with CNV in CNTN4): Y (“Responder” indicates a 30% or greater reduction from baseline in ADHD RS-5 total score)
Responder? (Y/N) ([2]; NFC-1-treated patients with CNV in GRM8): Y (“Responder” indicates a 30% or greater reduction from baseline in ADHD RS-5 total score)
ADHD-RS-5 Total Score: ≥30% Reduction from Baseline, % of subjects [2, 13]: 88% (15)
CGI-I Score 1 or 2, % of subjects [2, 13]: 76% (13)
Composite response, % of subjects [2, 13]: 76% (13)
ADHD-RS-5 Total Score: ≥30% Reduction from Baseline, % of subjects ([2]; study end (LOCF), CNTN4 Subset, NFC-1 BID n = 6, p <0.005 vs placebo): 100% (6)
CGI-I Score 1 or 2, % of subjects [2, 14]: 83% (5)
Composite response, % of subjects [2, 14]: 83% (5)
patients with 30% or greater reduction from baseline in ADHD RS-5 total score ([2]; subjects with a CNV in CNTN4 assigned to NFC-1): 6/6
ADHD RS-5 Total Score: ≥30% Reduction from Baseline, % of subjects ([2]; treatment response at endpoint (ITT, LOCF), NFC-1 BID n = 46, p <0.01 vs placebo): 70% (32)
CGI-I Score 1 or 2, % of subjects [2, 15]: 57% (26)
Composite response, % of subjects [2, 15]: 57% (26)
TEAE: Upper respiratory tract infection, % of subjects [3]: 4%
safety and tolerability ([4]; Phase I-III trials, dementia indications): generally safe and well tolerated
effects on psychiatric symptoms ([4]; Phase III data, cerebral infarct patients and adult dementia patients with cerebrovascular diseases): beneficial effects
efficacy in dementia ([4]; Phase III trials): did not show sufficient efficacy
difference between placebo and NFC-1 in ADHD-RS-5 total score change from Baseline to LOCF endpoint (primary endpoint) ([5]; ITT, overall population, optimized dose 100, 200 or 400 mg BID): not significant
Response (% reduction in ADHD-RS score at endpoint from baseline) ([5]; Table 16, individual subjects with CNV in CNTN4 in the NFC-1-treated group, monohydrate): −41.46% and −35.9% and −77.42% and −70% and −62.5% and −48.65%
Response (change from baseline in ADHD RS-5 total score) [5, 9]: −65%
Response (change from baseline in ADHD RS-5 total score) [5, 10]: −33.3333%
Response (change from baseline in ADHD RS-5 total score) [5, 11]: −37.5%
Response (change from baseline in ADHD RS-5 total score) [5, 12]: −76.9231%
Response (change from baseline in ADHD RS-5 total score) ([5]; NFC-1-treated patients with CNV in GRM8, monohydrate): −48.2759% and −39.0244%
difference between treatment groups in remission [6]: no significant difference

NC(=O)CN1CCCC1=O [piracetam]
effect on ADHD symptoms compared to placebo control (pediatric ADHD subjects): increase ADHD symptoms

O=C1CC[C@H](C(=O)N2CCCCC2)N1 [Fasoracetam, (+)-5-oxo-D-prolinepiperidinamide]
stimulation of mGluRs [7]: can stimulate both group I and group II/III mGluRs
bioavailable [8]: 79%-97%
half-life [8]: 5 to 6.5 h
